The values below come from the Kinase Knowledgebase extract (Sharma et al. 2016).

The target in this assay is CDK2 (UniProt P24941). Put plainly: Enzyme Assay.

For the compound `CC(C)CNc1cncc(Cl)n1`, the IC50 – broadly, the concentration that gives 50% inhibition – stood at 105 µM.
In the case of `Oc1cccc(Nc2cncc(Cl)n2)c1`, the IC50 turned out to be 6 µM.
The result for `Clc1cncc(N2CCc3ccccc3C2)n1` reads 98 µM; that for `NS(=O)(=O)c1cccc(Nc2cncc(Cl)n2)c1`, 7 µM; that for `CC(C)c1nccn1-c1cncc(Nc2ccccc2)n1`, 12 µM.
The result for `Clc1cncc(NC2CCCCC2)n1` reads 27 µM.
In the case of `Clc1cncc(NC[C@H]2CCCN2)n1`, the IC50 came to 5 µM.
Compound `c1ccc(Nc2cncc(-n3ccnc3)n2)cc1` yielded an IC50 of 5.5 µM.
The result for `Clc1ccc(Nc2cncc(Cl)n2)nc1` reads 8 µM; that for `Clc1cncc(NCc2ccc(Cl)s2)n1`, 32 µM; that for `CSc1cncc(Nc2ccccc2)n1`, 3 µM.
In the case of `Clc1cncc(NC(c2ccccc2)c2ccccc2)n1` it was 23 µM; in that of `Clc1cncc(-n2cccn2)n1`, 82 µM; in that of `Clc1cncc(NCc2cc(Oc3cncc(Cl)n3)no2)n1`, 40 µM.
The compound `O[C@@H]1CCCC[C@H]1CN(c1cncc(Cl)n1)C1CCCCC1` showed an IC50 of 12 µM.
The result for `CCOC(=O)c1ccc(CNc2cncc(Cl)n2)o1` reads 36 µM.
The result for `Clc1cncc(N(Cc2ccccc2)C2CCCCC2)n1` reads 64 µM; that for `Clc1cncc(Nc2ccccc2)n1`, 9 µM.
`Clc1cncc(NC2CCCC2)n1` came in with an IC50 of 52 µM.
In turn, `O=c1[nH]c2ccccc2n1-c1cncc(Cl)n1` came in with an IC50 of 10 µM.
Take `Clc1cncc(-n2cnc3ccccc32)n1`: the IC50 amounted to 35 µM.
In turn, `O=C(O)c1ccc(Nc2cncc(Cl)n2)nc1` gave an IC50 of 68 µM.
`Cc1cc2cc(CNc3cncc(Cl)n3)ccc2[nH]1`: the IC50 is 14 µM.
As to `CC(=O)Nc1ccc(Nc2cncc(Cl)n2)cc1`, the IC50 was 15 µM.
On to `Clc1cncc(Nc2ccccn2)n1`, for which the IC50 came to 17 µM.
On to `NCCCN(c1cncc(Cl)n1)C1CCCCC1`, for which the IC50 came out at 4 µM.
The compound `OCCN(c1cncc(Cl)n1)C1CCCCC1` had an IC50 of 54 µM.
`Cc1cc(Nc2cncc(Cl)n2)[nH]n1`: the IC50 amounted to 49 µM.
For the compound `Clc1cncc(NCCNc2cncc(Cl)n2)n1`, the IC50 was determined as 43 µM.
Turning to `Clc1cncc(Nc2cccnc2)n1`, the IC50 amounted to 27 µM.
The result for `FC(F)(F)COc1cncc(Nc2ccccc2)n1` reads 17 µM; that for `c1cn(-c2cncc(-n3ccnc3)n2)cn1`, 105 µM.
The result for `CC(C)(C)c1cc(N)n(-c2cncc(Cl)n2)n1` reads 147 µM; that for `Clc1cncc(N2CCN(c3ccccc3)CC2)n1`, 102 µM; that for `Clc1cncc(NCCc2c[nH]cn2)n1`, 73 µM.
`NS(=O)(=O)CCNc1cncc(Cl)n1` yielded an IC50 of 60 µM.
In the case of `NC(=O)c1sccc1Nc1cncc(Cl)n1`, the IC50 is 9 µM.
Compound `Fc1ccc(Nc2cncc(Cl)n2)cc1` had an IC50 of 16 µM.
Compound `Oc1ccc(Nc2cncc(Cl)n2)cc1` returned an IC50 of 24 µM.
